SMILES strings stand for the structures.

In test [1] the test system is HCT116 human colorectal carcinoma. Nature of the test: Cell Proliferation Assay (CellTiter-Glo), HCT116. Type of test: cell-based. Particulars: HCT-116, HCT116 cell line, 72 h exposure. Here is the method: Compounds are tested in a cell proliferation assay using the following cell lines:
(§1) HCT116 human colorectal carcinoma (ATCC)
(§2) Both cell lines are maintained in DMEM/F12 (1:1) media (Gibco) supplemented with 10% FCS at 37° C. in a 5% CO2 humidified incubator.
Cells are seeded in 96-well plates at 2,000 cells/well and after 24 hours they are exposed to different concentrations of compounds in 0.83% DMSO. Cells are grown for a further 72 h, and an equal volume of CellTiter-Glo reagent (Promega) is added to each well. This lyses the cells and generates a luminescent signal proportional to the amount of ATP released (and therefore proportional to the number of cells in the well) that can be detected using a multi-well luminometer.
The EC50 is defined as the concentration at which a given compound achieves 50% inhibition of control. IC50 values are calculated using the XLfit software package (version 2.0.5).

A further test has as its system phospho-ERK. The experiment in a line: Phospho-ERK Cell-Based Assay (ELISA), HCT116. The note with it: Homo sapiens, HCT-116; HCT116 cell line, 2 h or 24 h exposure. Here is the method:
Phospho-ERK Cell-Based Assay
Compounds are tested in a cell-based phospho-ERK ELISA using the following cell lines:
as §1, §2
Cells are seeded in 96-well plates at 2,000 cells/well and after 24 h they are exposed to different concentrations of compounds in 0.83% DMSO. Cells are grown for a further 2 h or 24 h, fixed with formaldehyde (2% final) and permeabilised with methanol. Following blocking with TBST-3% BSA, fixed cells are incubated with primary antibody (anti-phospho ERK from rabbit) over-night at 4° C. Cells are incubated with Propidium Iodide (DNA fluorescent dye) and detection of cellular p-ERK is performed using an anti-rabbit secondary antibody conjugated to the fluorescent Alexa Fluor 488 dye (Molecular probes). The fluorescence is analysed using the Acumen Explorer (TTP Labtech), a laser-scanning microplate cytometer, and the Alexa Fluor 488 signal is normalised to the PI signal (proportional to cell number).
The EC50 is defined as the concentration at which a given compound achieves a signal half way between the baseline and the maximum response. EC50 values are calculated using the XLfit software package (version 2.0.5).
(ELISA stands for enzyme-linked immunosorbent assay.)

Regarding `C[C@H](O)CONC(=O)c1ccn2cncc2c1Nc1ccc(Br)cc1F` [Example 12, 8-(4-Bromo-2-fluoro-phenylamino)-imidazo[1,5-a]pyridine-7-carboxylic acid ((S)-2-hydroxy-propoxy)-amide], the EC50 (as a rule, the concentration at which the effect is half-maximal) in test [1] was below 100 nM; in the test with phospho-ERK, below 200 nM.
